The text below walks through data of publication PMC6144582, “The Binding of BF-227-Like Benzoxazoles to Human α-Synuclein and Amyloid β Peptide Fibrils” (Molecular Imaging, 2018).

A word on the Ki: it is the dissociation constant of the complex between target and ligand, obtained from inhibition or displacement. What is called Kd is a measure of binding affinity in units of concentration.

Where two headings read alike, the source gives them in different places.

One experiment deals with T1, Aβ1-42 fibrils (Homo sapiens, UniProt P05067).
T1 construct: Aβ1-42 peptide 5 mg, Cat #20276-5 (Anaspec, Fremont, California); purchased Anaspec 20276-5
Nature of the experiment: Competition binding against 5 nM [3H]BF-227 on Aβ1-42 fibrils. Conditions: 5 nM [3H]BF-227, Cheng-Prusoff; geometric mean (low; high errors of the geometric mean); read-out: Aβ Ki. Here is the method:
The clear peptide solution was transferred to a 15 mL conical tube. […] Subsequently, 4 mL of Milli-Q-H2O was added to the conical tube followed by the addition of 125 µL of 1 M Tris–HCl, pH 7.5 with gentle mixing of the solution. The final volume was 5 mL, with the starting peptide concentration at 1 mg/mL. The peptide solution was divided into 5 × 1 mL aliquots with 1.5 mL Eppendorf tubes and incubated for 72 hours at 37°C with shaking at 1000 rpm in an Eppendorf Thermomixer. […] Fibril stock solutions were stored at −80°C.
(§1) Experiments were performed in 50 mM Tris–HCl pH 7.5, 150 mM NaCl, and 0.1% bovine serum albumin in a reaction volume of 200 µL. Incubations were initiated with the addition of human α-Syn ([…]) or Aβ1-42 (0.1 μM/well) fibrils at room temperature and terminated 2 hours later by rapid vacuum filtration over Whatman GF/C 96-well Unifilters (Brandel [Gaithersburg, Maryland]) presoaked in cold wash buffer (50 mM Tris–HCl, pH7.4), followed by four 200 µL washes with cold wash buffer. Filters containing bound ligand were mixed with 50 µL Microscint-PS (Perkin-Elmer [Waltham, Massachusetts]) and counted with a MicroBeta2 Scintillation Counter (Perkin Elmer). All data points were performed in triplicate. Values for the saturation binding dissociation constant (KD) and the maximal number of binding sites (Bmax) were determined by fitting the data to the equation Y = Bmax × X/(X + KD) using nonlinear regression analysis. IC50 values were generated from the concentration–response curves using nonlinear regression analysis and converted to Ki values with the Cheng-Prusoff equation.[7]
Results are expressed as inhibition constants (Ki, nM) corrected for ligand occupancy.[7] Each value is a geometric mean from the indicated numbers of experiments (n), with the numbers in parentheses indicating the low and high errors of the geometric mean. […] These can be compared with means for the 5 Aβ imaging agents which can serve as an empirical training set to judge the likely in vivo behavior of new compounds.

The target of another experiment is T2, human α-Syn fibrils (Homo sapiens, UniProt P37840).
T2 construct: Human full-length α-Syn (NM_000345) was cloned; made in house; host or cells: Escherichia coli BL21 (D3)
Nature of the experiment: Competition binding against 5 nM [3H]BF-227 on α-Syn fibrils. Particulars: for Ki: 5 nM [3H]BF-227, Cheng-Prusoff, geometric mean (low; high errors of the geometric mean); for Ki(Aβ)/Ki(α-Syn): selectivity for α-Syn binding, ratio of Ki on Aβ fibrils to Ki on α-Syn fibrils. How it is done:
Human full-length α-Syn (NM_000345) was cloned into the ampicillin-resistant Escherichia coli expression vector PET7-7 and transformed into BL21 (D3) strains for expression. The recombinant α-Syn was expressed and purified to ≥95% purity as described previously.[6] The monomeric α-Syn was formulated in 10 mM Tris–HCl, pH 7.6, 50 mM NaCl at 5 mg/mL. For fibril formation, 500 µL of purified α-Syn monomer was subjected to continuous shaking at 1000 rpm in an Eppendorf Thermomixer at 37°C for 7 days. The monomer was removed from fibrils by high-speed centrifugation with a Beckman-Coulter tabletop Optima MAX-XP (Beckman-Coulter, Indianapolis, Indiana) ultra-centrifuge at 600 000g for 40 minutes, followed by 3 PBS/centrifugation wash steps. After each centrifugation step, the supernatant was removed and the concentration of α-Syn in the supernatant was calculated from absorbance at 280 nm. The pellet was resuspended in PBS, and the concentration of fibrils was estimated by subtracting the total amount of α-Syn in the supernatant from all the wash steps and confirmed by BCA assay before use.
as §1, with “Competition studies were carried out using 5 nM [^3H]BF-227. Experiments” for “Experiments”, “equation.[7] Data analysis was performed with GraphPad Prism version 7.02.” for “equation.[7]”
Results are expressed as inhibition constants (Ki, nM) corrected for ligand occupancy.[7] Each value is a geometric mean from the indicated numbers of experiments (n), with the numbers in parentheses indicating the low and high errors of the geometric mean. Also shown are the Log P, tPSA, and CLogP values for these compounds. These can be compared with means for the 5 Aβ imaging agents which can serve as an empirical training set to judge the likely in vivo behavior of new compounds.

For experiment [1], the system named is α-Syn-positive, Aβ-negative dementia with Lewy body human brain homgenates. Also on record: method as in PMID 28826526. Conditions: cited from earlier work.
The target in another experiment is synthetic α-Syn fibrils. Also noted: method as in PMID 19576880. Conditions: reported value; cited from earlier work.
The target in experiment [2] is synthetic Aβ fibrils. Also on record: method as in PMID 17401091. Conditions: reported value; cited from earlier work.
The target in experiment [3] is synthetic Aβ fibrils. Also on record: method as in PMID 19576880. Conditions: reported value; cited from earlier work.
In a further experiment the test system is Lewy body. Also noted: method as in PMID 19576880. Particulars: high concentration (100 μM); cited from earlier work.

T1 sequence (P05067 672-713 limits assumed): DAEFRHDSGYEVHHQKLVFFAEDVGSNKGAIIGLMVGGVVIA

Consider `C#CCN(C)CCCOc1ccc(Cl)cc1Cl` [Clorgyline, reference compound], for which the figures for the Ki on Aβ1-42 fibrils and at human α-Syn fibrils were more than 5000 nM and more than 9000 nM, respectively.

On to `CN(C)c1ncc(/C=C/c2nc3ccc(OCCOCCF)cc3o2)s1` [Compound 7], for which the Ki at Aβ1-42 fibrils was 11 nM. On human α-Syn fibrils, the Ki stood at 83 nM and the “Ki(Aβ)/Ki(α-Syn)” value was determined as 0.13.

As to `CN(C)c1ncc(/C=C/c2nc3ccc(OCCCCCCCF)cc3o2)s1` [Compound 6], the Ki at Aβ1-42 fibrils was found to be 27 nM. Further, at human α-Syn fibrils, the Ki was 212 nM and the “Ki(Aβ)/Ki(α-Syn)” value is 0.13.

Take `CN(C)c1ncc(/C=C/c2nc3ccc(I)cc3o2)s1` [Compound 11]: on Aβ1-42 fibrils, the Ki is 223 nM. The “Ki(Aβ)/Ki(α-Syn)” value on human α-Syn fibrils amounted to 0.30.

`CN(C)c1ncc(C=Cc2nc3ccc(OCCF)cc3o2)s1` [[^18F]BF-227]: the “Binding to α-Syn-positive, Aβ-negative dementia with Lewy body human brain homogenates” value in experiment [1] is on record as “failed to bind”.

Turning to `CNc1ccc(-c2nc3ccccc3s2)cc1` [BTA-1, reference compound], at human α-Syn fibrils, the Ki is 64 nM.

`CNc1ccc(-c2nc3ccc(O)cc3s2)cc1F` [Flutemetamol, reference compound]: the Ki at Aβ1-42 fibrils was determined as 65 nM. Besides, on human α-Syn fibrils, the inhibition constant Ki was 48 nM and the “Ki(Aβ)/Ki(α-Syn)” value was found to be 1.35.

Turning to `CN(C)c1ncc(/C=C/c2nc3ccc(OCCCCCF)cc3o2)s1` [Compound 4], the values for the inhibition constant Ki at Aβ1-42 fibrils and at human α-Syn fibrils were 28 nM and 297 nM, respectively. Besides, the “Ki(Aβ)/Ki(α-Syn)” value on human α-Syn fibrils worked out at 0.09.

Consider `CN(C)c1ncc(/C=C/c2nc3cc(I)ccc3o2)s1` [Compound 12], for which the Ki at Aβ1-42 fibrils came out at 96 nM. Moreover, on human α-Syn fibrils, the Ki is 276 nM and the “Ki(Aβ)/Ki(α-Syn)” value worked out at 0.35.

With `Fc1ccc2nc(/C=C/c3cncs3)oc2c1` [Compound 15], the Ki on Aβ1-42 fibrils amounted to 1450 nM. In addition, on human α-Syn fibrils, the affinity, expressed as Ki, was 286 nM and the “Ki(Aβ)/Ki(α-Syn)” value is reported as 5.1.

Regarding `CNc1ccc(-c2cc3cc(O)ccc3o2)c(F)n1` [Flutafuranol (NAV 4694), reference compound], the Ki at Aβ1-42 fibrils was 42 nM. Further, at human α-Syn fibrils, the Ki was 32 nM and the “Ki(Aβ)/Ki(α-Syn)” value was determined as 1.34.

`Cc1ccc2c(sc(-c3ccc4c(c3)sc(-c3ccc(N(C)C)cc3)[n+]4C)[n+]2C)c1S(=O)(=O)O` [reference compound]: on Aβ1-42 fibrils, the Ki came to 2150 nM. For the same compound, on human α-Syn fibrils, the Ki is more than 9000 nM and the “Ki(Aβ)/Ki(α-Syn)” value is not above 0.2.

For `Fc1ccc2nc(/C=C/c3ccccc3)oc2c1` [Compound 13], the Ki was determined as 1250 nM on Aβ1-42 fibrils and 328 nM at human α-Syn fibrils. Besides, on human α-Syn fibrils, the “Ki(Aβ)/Ki(α-Syn)” value came out at 3.8.

Turning to `COc1cc(/C=C/c2ccc(N)cc2)ccc1/C=C/c1ccc(N)cc1` [BMB, 1,4-bis(paminostyryl)-2-methoxy benzene, reference compound], the Ki at Aβ1-42 fibrils is 76 nM; on human α-Syn fibrils, 184 nM.

Take `CN(C)c1ncc(/C=C/c2nc3ccc(OCCCCCCF)cc3o2)s1` [Compound 5]: the Ki on Aβ1-42 fibrils was 23 nM. Moreover, on human α-Syn fibrils, the Ki came to 462 nM and the “Ki(Aβ)/Ki(α-Syn)” value is given as 0.05.

In the case of `CN(C)c1ncc(/C=C/c2nc3ccc(OCCOCCOCCOCCOCCF)cc3o2)s1` [Compound 10], the Ki on Aβ1-42 fibrils worked out at 18 nM; on human α-Syn fibrils, 75 nM. Also, the “Ki(Aβ)/Ki(α-Syn)” value at human α-Syn fibrils was found to be 0.24.

In the case of `CN(C)c1ncc(/C=C/c2nc3ccc(OCCOCCOCCF)cc3o2)s1` [Compound 8], the Ki at Aβ1-42 fibrils was 13 nM. At human α-Syn fibrils, the Ki was 52 nM and the “Ki(Aβ)/Ki(α-Syn)” value came to 0.25.

For the compound `Fc1ccc2oc(/C=C/c3ccccc3)nc2c1` [Compound 14], on Aβ1-42 fibrils, the Ki was 528 nM. Further, at human α-Syn fibrils, the Ki is 238 nM and the “Ki(Aβ)/Ki(α-Syn)” value worked out at 2.2.

Turning to `CN(C)c1ncc(C=Cc2nc3ccc(OCCF)cc3o2)s1` [Compound 1, 2-(2-[2-dimethylaminothiazol-5-yl]ethenyl)-6-(2-[fluoro]ethoxy)benzoxazole], the values for the Kd on synthetic α-Syn fibrils, on synthetic Aβ fibrils [2] and on synthetic Aβ fibrils [3] were 9.3 nM, 4.1 nM and 1.31 nM, respectively. The values for the Ki at Aβ1-42 fibrils and at human α-Syn fibrils were 12 nM and 53 nM, respectively. Further, at human α-Syn fibrils, the “Ki(Aβ)/Ki(α-Syn)” value was determined as 0.23. For the same compound, the “Lewy body fluorescence in histochemical analysis” value in the experiment with Lewy body was “led to Lewy body fluorescence”.

Turning to `NCCNC(=O)c1ccc(Cl)cc1` [RO-16-6491, reference compound], the Ki is more than 7000 nM at Aβ1-42 fibrils and more than 9000 nM at human α-Syn fibrils.

For the compound `CNc1ccc(/C=C/c2ccc(OCCOCCOCCF)nc2)cc1` [Florbetapir (AV-45), reference compound], the Ki at Aβ1-42 fibrils turned out to be 12 nM. At human α-Syn fibrils, the Ki came to 24 nM and the “Ki(Aβ)/Ki(α-Syn)” value is listed as 0.46.

Consider `CN(C)c1ncc(/C=C/c2nc3ccc(OCCCF)cc3o2)s1` [Compound 2], for which the Ki at Aβ1-42 fibrils came to 9.01 nM. In addition, at human α-Syn fibrils, the affinity, expressed as Ki, was 157 nM and the “Ki(Aβ)/Ki(α-Syn)” value stood at 0.06.

Take `CN(C)c1ncc(/C=C/c2nc3ccc(OCCOCCOCCOCCF)cc3o2)s1` [Compound 9]: the Ki at Aβ1-42 fibrils came out at 26 nM. At human α-Syn fibrils, the Ki is 100 nM and the “Ki(Aβ)/Ki(α-Syn)” value is 0.26.

`CN(C)c1ncc(/C=C/c2nc3ccc(OCCCCF)cc3o2)s1` [Compound 3]: on Aβ1-42 fibrils, the Ki was 31 nM. Further, at human α-Syn fibrils, affinity was put at a Ki of 378 nM and the “Ki(Aβ)/Ki(α-Syn)” value stood at 0.08.

Turning to `CNc1ccc(-c2nc3ccc(O)cc3s2)cc1` [PiB, reference compound], the affinity on human α-Syn fibrils corresponds to a Ki of 55 nM.
